Assay results as given in US20230087609A1, “USE OF A SOLUBLE GUANYLATE CYCLASE (sGC) STIMULATOR OR OF A COMBINATION OF A sGC STIMULATOR AND AN sGC ACTIVATOR FOR CONDITIONS WHEREIN THE HEME GROUP OF sGC IS OXIDIZED OR WHEREIN sGC IS DEFICIENT IN HEME” (Universiteit Maastricht, priority 2020, published 2023).

Target: T1, apo-sGC (sGCβ1 H105F knock-in) (Mus musculus, UniProt O54865, H105F)
T1 construct: from tissue; host or cells: lung homogenate of homozygous sGCβ1 H105F knock-in mice
T1 sequence (O54865 1-620 H105F): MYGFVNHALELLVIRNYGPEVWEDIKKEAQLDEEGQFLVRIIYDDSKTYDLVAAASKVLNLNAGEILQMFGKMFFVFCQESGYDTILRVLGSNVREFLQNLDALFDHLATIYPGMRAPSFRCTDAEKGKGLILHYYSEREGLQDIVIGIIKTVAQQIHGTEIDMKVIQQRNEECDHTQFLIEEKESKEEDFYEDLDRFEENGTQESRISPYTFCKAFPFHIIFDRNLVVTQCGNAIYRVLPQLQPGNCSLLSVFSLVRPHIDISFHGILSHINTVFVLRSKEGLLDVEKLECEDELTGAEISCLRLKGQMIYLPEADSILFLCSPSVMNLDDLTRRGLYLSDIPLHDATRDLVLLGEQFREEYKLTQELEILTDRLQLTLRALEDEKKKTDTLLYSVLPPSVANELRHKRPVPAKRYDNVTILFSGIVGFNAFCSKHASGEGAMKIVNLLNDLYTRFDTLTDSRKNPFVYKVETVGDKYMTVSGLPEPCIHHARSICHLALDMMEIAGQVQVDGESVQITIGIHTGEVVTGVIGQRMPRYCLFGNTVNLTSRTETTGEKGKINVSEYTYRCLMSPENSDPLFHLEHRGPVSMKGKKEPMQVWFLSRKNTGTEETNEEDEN
T1 sequence (Q9ERL9 1-691 partner): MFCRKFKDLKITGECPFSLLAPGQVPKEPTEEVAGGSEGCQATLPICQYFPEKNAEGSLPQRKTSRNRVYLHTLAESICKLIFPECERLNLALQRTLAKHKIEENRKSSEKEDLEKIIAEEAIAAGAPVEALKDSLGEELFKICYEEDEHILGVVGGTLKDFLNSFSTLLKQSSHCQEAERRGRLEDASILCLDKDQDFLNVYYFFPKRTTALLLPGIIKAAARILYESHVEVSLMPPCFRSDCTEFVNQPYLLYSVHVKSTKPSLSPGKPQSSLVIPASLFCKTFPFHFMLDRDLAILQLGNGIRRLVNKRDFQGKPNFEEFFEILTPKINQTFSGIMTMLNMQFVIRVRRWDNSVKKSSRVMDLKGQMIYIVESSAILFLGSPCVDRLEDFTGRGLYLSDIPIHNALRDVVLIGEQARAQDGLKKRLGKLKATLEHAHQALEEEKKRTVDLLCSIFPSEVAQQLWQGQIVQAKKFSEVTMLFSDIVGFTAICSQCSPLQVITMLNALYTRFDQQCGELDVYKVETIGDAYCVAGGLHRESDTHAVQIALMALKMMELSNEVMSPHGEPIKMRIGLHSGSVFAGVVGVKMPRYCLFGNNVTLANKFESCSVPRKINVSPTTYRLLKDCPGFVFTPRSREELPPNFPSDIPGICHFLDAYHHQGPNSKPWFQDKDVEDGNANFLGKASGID
Experiment: sGC activity in lung homogenates of apo-sGC mice
Format: biochemical
Procedure: Adult male Sprague Dawley (SD) rats (age, 10-12 weeks) were obtained from Animal Resources Centre (Western Australia). Animals were housed on a 12 hour day/night cycle at a room temperature of 20±2° C., in the Department of Pharmacology Animal House, Monash University. The animals were fed standard rodent chow and water was available ad libitum. Homozygous male sGC(1^H105F knock-in mice (“apo-sGC mice”) were kindly provided by Tufts Medical Center, Molecular Cardiology Research Center, Boston, Mass., USA (Toonen et al., Nat Commun. 2015; 6:8482. doi: 10.1038/ncomms9482).
To measure sGC activity, cells were stimulated with 250 μM DEA/NO or 10 μM BAY58-2667 for 3 min at 37° C. Thereafter, cells were immediately lysed in 80% ethanol. Cells were scraped and, after evaporation of ethanol, re-suspended in assay buffer and sonicated. Measurement of sGC activity in crude homogenates of mouse tissue was performed as previously described (Nedvetsky et al., Brain Res. 2002; 950(1-2):148-154. doi: 10.1016/50006-8993(02)03015-9).[9] Briefly, all samples were measured as the formation of cGMP at 37° C. during 10 min in a total incubation volume of […] containing 50 mM triethanolamine-HCl (pH 7.4), 3 mM MgCl2, 3 mM glutathione (Carl Roth, Karlsruhe, Germany), 1 mM IBMX, […], 5 mM creatine phosphate, 0.25 mg/ml creatine kinase and 1 mM or 0.5 mM GTP. After adding sGC activator in the absence or presence of the sGC stimulator the reaction was started by application of GTP solution. Following incubation of each sample for 10 min the reaction was stopped by boiling for 10 min at 95° C. Thereafter the amount of cGMP was subsequently determined by a commercial enzyme immunoassay kit (Enzo Life Sciences, Lorrach, Germany or Biotrend, Cologne, Germany). In some experiments pre-incubation of freshly homogenized tissue with ODQ at 37° C. for 20 min prior measuring sGC activation was required.

cGMP formation on stimulation with the sGC stimulator (10 μM BAY 41-2272, in presence and in absence of 10 μM ODQ (FIG. 11)): cGMP is synthesized
sGC activity, response to compound alone (lung homogenates of apo-sGC mice, compound alone): can also be activated
Structure (SMILES): Nc1nc(-c2nn(Cc3ccccc3F)c3ncccc23)ncc1C1CC1 [BAY 41-2272, 5-cyclopropyl-2-[1-(2-fluoro-benzyl)-1H-pyrazolo[3,4-b]pyridin-3-yl]-pyrimidin-4-ylamine]
